This note sets out measurements from patent US20080176264A1, “Osteoclast Culture Vessels and Methods of Use” (priority 2004, published 2008).

This assay concerns primary human osteoclast precursors. In words: In vitro bone resorption assay in OSTEOASSAY plate (CTx collagen resorption product in supernatant, EIA). Type of assay: cell-based. The note with it: supernatants assayed after an additional 2 days, M-CSF and soluble RANK ligand. On the procedure:
OSTEOASSAY™ plates, which contain adherent particles (≦0.125 mm dimension) of native human bone, were seeded with 10,000 primary human osteoclast precursors (“Poietics™ Osteoclast Precursors,” product no. 2T-110, Cambrex Corporation) per well in medium containing M-CSF+/−soluble RANK ligand and cultured at 37° C. for 5-7 days. Culture media were changed on day 5, 6 or 7 and the cultures were continued for another 1 to 3 days.
The release into the culture supernatants of collagen type I peptides from the bone particles was measured quantitatively by enzyme immunoassay (EIA). Three different commercially available assay kits for the measurement of resorption-specific collagen resorption fragments were evaluated: the METRA™ Helical Peptide EIA kit (Quidel), the Serum CROSSLAPS® ELISA (Nordic Bioscience) kit, and the OSTEOMARK® NTx (Ostex) kit. In some experiments, the OSTEOASSAY™ plate was compared to dentin discs (ALPCO Diagnostics). In other assays, primary human osteoclast precursors were exposed to inhibitors of osteoclast function (alendronate or calcitonin) for 48-72 hours and then assayed for bone resorptive activity.
Primary human osteoclast precursors were seeded at 10,000 cells/well and cultured in medium containing M-CSF and soluble RANK ligand. After 5 days of culture, the medium was renewed +/−1 nM calcitonin or +/−various concentrations of alendronate. […]

A word on the IC50: it is the midpoint of a concentration-inhibition curve. As to `NCCCC(O)(P(=O)(O)O)P(=O)(O)O` [alendronate], where the note is “Homo sapiens, Osteoclast, various concentrations added after 5 days of culture, FIG. 4, read-out: IC50 for inhibition of bone resorption (CTx collagen resorption product)”, the IC50 was ~1000 nM.

For the molecule calcitonin, the “inhibition of in vitro bone resorption (CTx collagen resorption product)” value (1 nM calcitonin added after 5 days of culture, FIG. 3) is recorded as “effectively inhibits in vitro bone resorption”.
